The text below walks through data of PubChem BioAssay AID549 (SRMLSC, 2006).

The source made the active and inactive calls.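 The calls were made as follows: active = clearly stronger inhibition of phosphomevalonate kinase than of the coupling enzymes alone in a parallel counterscreen; inactive = the rest.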

This assay has as its target phosphomevalonate kinase (Streptococcus pneumoniae D39). The assay is described as follows: phosphomevalonate kinase inhibition IC50 – biochemical, mevalonate pathway, coupling enzyme counter-screen, dose response (AID 549). The conditions noted are these: PMK enzyme, PK/LDH coupled NADH absorbance 340 nm. (A counterscreen serves to expose hits that act by an unwanted route or on another target.)

With `O=c1oc2ccccc2n1CCn1c2ccccc2c2nc3ccccc3nc21`, the outcome was inactive.

Turning to `CCOCCCN1C(=O)CN(C2CCCCC2)C(=O)C1c1ccc(OCC)c(OC)c1` (centres undefined), the outcome was inactive.

Take `Cc1nnc(SCC(=O)Nc2ncc(Cc3ccc(F)cc3)s2)n1N`: the result was inactive.

In the case of `Cc1nn(Cc2ccccc2)c2c1C(c1ccncc1)C(C#N)=C(N)O2` (centres undefined), the result was inactive.

For `CCc1nn(C(C)C(=O)NCCc2ccc(OC)c(OC)c2)c(=O)c2cc3occc3n12` (centres undefined), the outcome was inactive.

As for `Clc1ccc(C(c2nnnn2C2CCCC2)N2CCN(Cc3ccncc3)CC2)cc1` (centres undefined), the result was inactive.

On to `O=C(c1cccnc1)N1CCc2ccccc2C1`, for which the result was inactive.

Regarding `CCOC(=O)C1CCCN(C(=O)C2CCCN(S(C)(=O)=O)C2)C1` (centres undefined), the outcome was inactive.

As for `Cn1c(=O)c2c(-c3ccccc3)n(C3CCCCC3)cc2n(C)c1=O`, the result was inactive.

With `O=S(=O)(Nc1ccc(S(=O)(=O)N2CCOCC2)cc1)c1ccccc1`, the result was inactive.

For the molecule `COc1ccc(C2C3=C(OC(C)=O)c4ccccc4C3=Nc3c2c(=O)n(C)c(=O)n3C)cc1` (centres undefined), the result was inactive.

As for `CCn1c(SC(=O)NC2CCCCC2)nnc1-c1cccs1`, the result was inactive.

For `COc1ccc(C2C(=O)N(C3CCCCC3)CC(=O)N2CCc2ccccc2)cc1OC` (centres undefined), the outcome was inactive.

In the case of `CC(C)=CC(=O)Nc1ccc(Br)cc1`, the outcome was inactive.

`COc1ccccc1CNC(=O)C1CCN(S(=O)(=O)N2CC(C)CC(C)C2)CC1` (centres undefined): the result was inactive.

On to `CC(=O)Nc1c(O)n(C)c2ccccc12`, for which the outcome was inactive.

For the molecule `CN(C)c1ccc(CNCCC2(O)CCOC(C)(C)C2)cc1` (centres undefined), the result was inactive.

`CC(C)COC(=O)n1ccc(C(=O)N2CCCCC2)n1`: the outcome was inactive.

Take `O=C(c1ccc2ccccc2c1)N1CCN(c2ccc(O)cc2)CC1`: the outcome was inactive.

Take `CCCCS(=O)(=O)C(=C1Nc2ccccc2N1)S(=O)(=O)CCCC`: the result was inactive.

As for `Cc1ccc(C(=O)c2cc3c(cc2N)OCCO3)cc1`, the outcome was inactive.

Turning to `COc1cccc(OC)c1OCC(O)CN1CCN(c2ccccc2)CC1` (centres undefined), the result was inactive.

Turning to `CN(C)c1ccc(-c2nc3ccccc3n2C)cc1`, the outcome was inactive.

For `CCOc1cc(N2CCOCC2)c(OCC)cc1NC(=O)Cc1ccc(OC)c(OC)c1`, the outcome was inactive.

In the case of `COC(=O)[C@@H](NC(=O)N1CCN(c2cccc(C(F)(F)F)c2)CC1)C(C)C`, the outcome was inactive.

Turning to `CCn1c(SCC(=O)Nc2ccc(Cl)cc2)nnc1C1CC1`, the result was inactive.

For `Cc1nonc1NC(=O)CSc1ccc(-c2ccccc2)nn1`, the outcome was inactive.

As to `Cc1ccccc1OCCCCc1c(C)n[nH]c1C`, the outcome was inactive.

As to `COc1ccc(S(=O)(=O)Nc2nnc(C)s2)cc1`, the outcome was inactive.

For `O=C(Nc1ccc(-c2noc(COc3ccccc3Cl)n2)cc1)c1ccco1`, the outcome was inactive.

Regarding `O=C(CSc1cc(Cl)ccc1Cl)NCC1CCCO1` (centres undefined), the result was inactive.

In the case of `CCS(=O)(=O)N1CCC(C(=O)NCC2CCCO2)CC1` (centres undefined), the outcome was inactive.

For `Cc1ccc(NC(=O)CSc2nnc(Cn3c(=O)sc4ccccc43)n2C)cc1Cl`, the outcome was inactive.

For `COc1ccc(-c2coc3c(CN4CCCCC4)c(O)c(CN4CCCCC4)c(O)c3c2=O)cc1`, the result was inactive.

In the case of `COc1ccc2[nH]cc(C(=O)CN3CCCC(C)C3)c2c1` (centres undefined), the result was inactive.

With `CCOc1ccc(S(=O)(=O)NCCCN2CCOCC2)c2ccccc12`, the outcome was inactive.

In the case of `COc1ccc2c(c1)c(C(=O)CNc1nc(C)cs1)c(C)n2C`, the outcome was inactive.

`Cc1nc2ccccc2n2c(O)c(CC(=O)O)cc12`: the outcome was inactive.

Take `COc1ccc(OC)c(CNC(=O)C2CCCN(c3nc4ccccc4o3)C2)c1` (centres undefined): the outcome was inactive.

Regarding `CCC(C)(C)n1nnnc1C(c1cccnc1)N1CCCc2ccccc21` (centres undefined), the result was inactive.

Regarding `CCS(=O)(=O)N1CCC(C(=O)NCc2ccco2)CC1`, the outcome was inactive.

Regarding `c1ccc(CCn2nnnc2C(c2cccs2)N2CCOCC2)cc1` (centres undefined), the result was inactive.

As to `N#Cc1cc2ccccc2nc1SCc1cccnc1`, the result was inactive.

Regarding `CC(C)OC(=O)CCC1(C(=O)O)CCC(=O)NC1` (centres undefined), the outcome was inactive.

As for `COc1ccccc1-n1c(SCC(=O)N2CCCCC2)nnc1-c1ccccc1O`, the result was inactive.

For `CC(CC(=O)O)NCC1COc2ccccc2O1` (centres undefined), the outcome was inactive.

In the case of `CCOC(=O)CNC(=O)Nc1nnc(-c2ccc(OCC)cc2)o1`, the outcome was inactive.

Turning to `CCOc1ccc(CNC(=O)C2CCN(S(=O)(=O)N3CCCC3)CC2)cc1OC`, the outcome was inactive.

For `COc1ccc(C(c2nnnn2CC2CCCO2)N2CCN(c3ccccc3)CC2)cc1` (centres undefined), the result was inactive.

For `CC(=O)N1CCC(N2CCN(c3ccccc3F)CC2)CC1`, the outcome was inactive.

With `CNS(=O)(=O)c1cccc(C(=O)OC2CCCCC2=O)c1` (centres undefined), the outcome was inactive.

`CCOC(=O)C1=C(C)NC(=O)NC1/C(C)=C/c1ccccc1` (centres undefined): the result was inactive.

Take `COc1cc2cc(CN(CCCO)S(=O)(=O)c3ccccc3Cl)c(=O)[nH]c2cc1OC`: the outcome was inactive.

With `COc1ccc(C2(C)NC(=O)N(Cc3cc(Cl)cc4c3OCOC4)C2=O)cc1OC` (centres undefined), the result was inactive.

Consider `O=C(NCc1cccs1)C1CCCN(c2nc3ccccc3o2)C1` (centres undefined), for which the result was inactive.

As to `N#Cc1cccc(CSc2nnc(CCCO)n2-c2ccccc2)c1`, the result was inactive.

Turning to `COc1ccc(S(=O)(=O)N2CCN(C3CCCCCCC3)CC2)cc1`, the outcome was inactive.

In the case of `O=C(c1cc2nc(-c3ccco3)cc(C(F)(F)F)n2n1)N1CCc2ccccc2C1`, the result was inactive.

Take `CCOc1ccccc1-n1c(SCC(=O)Nc2ccc(CC)cc2)nc2n[nH]c(C)c2c1=N`: the outcome was inactive.

As to `COc1ccc2c(c1OC)C(=O)OC2C1c2c(cc3c(c2OC)OCO3)CCN1C` (centres undefined), the outcome was inactive.

On to `CCOc1ccc(C2c3c(oc4cc(C)c(C)cc4c3=O)C(=O)N2CCCN(C)C)cc1OC` (centres undefined), for which the result was inactive.

Turning to `Cc1n[nH]c(=S)n(/N=C/c2ccccn2)c1=O`, the result was inactive.

Regarding `Cc1csc(NC(=O)CN2CCCCCC2)n1`, the result was inactive.

Take `CCOCCCNC(=O)C1CCN(S(=O)(=O)N(CC(C)C)CC(C)C)CC1`: the outcome was inactive.

With `COc1ccc(CN2C(=O)c3ccccc3C2C(=O)NC2CCCC2)c(OC)c1` (centres undefined), the result was inactive.

For `CCc1nnc(NC(=O)CSc2nnc(Cc3cccn3C)n2C)s1`, the outcome was inactive.

For `COCC(C)n1c(COc2ccccc2F)nnc1SCc1c(C)noc1C` (centres undefined), the outcome was inactive.

Turning to `Cc1csc(C(C#N)C(=O)c2ccc(S(=O)(=O)N3CCCC3)cc2)n1` (centres undefined), the result was inactive.

For `c1ccc2sc(SCc3ccc(-c4nnco4)cc3)nc2c1`, the result was inactive.
